Bounds are passed on as bounds.

In patent EP0569598A1, “BENZOXAZINONE DERIVATIVE” (JAPAN TOBACCO INC., priority 1991, dated 1993) one finds IC50 data, which are given here for one compound.

Common to all, as to assay type: biochemical
The target in experiment [1] is T1, bovine pancreatic trypsin (TRY) (Bos taurus, UniProt P00760).
T1 construct: bovine pancreatic trypsin (TRY); purchased Sigma Inc
T1 sequence (P00760 24-246): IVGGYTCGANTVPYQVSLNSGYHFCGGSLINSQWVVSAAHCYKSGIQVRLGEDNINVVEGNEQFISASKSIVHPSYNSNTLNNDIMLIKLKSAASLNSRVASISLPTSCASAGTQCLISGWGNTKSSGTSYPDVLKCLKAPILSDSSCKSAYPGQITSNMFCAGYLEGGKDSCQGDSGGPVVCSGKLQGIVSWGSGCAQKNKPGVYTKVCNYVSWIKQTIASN
Kind of experiment: TRY inhibitory activity (synthetic substrate, pNA release). As to conditions: pH 7.5; TRY 25 nM, substrate Z-Arg-pNA 1.0 mM; read-out: IC₅₀ value TRY. On the procedure:
(§1) Activities of the Benzoxazine derivatives of the present invention against human leukocyte elastase (HLE), human sputum elastase (HSE), human cathepsin G (HCG), bovine pancreatic α-chmotrypsin (CYT) and bovine pancreatic trypsin (TRY) were measured by the following method.
A test compound was dissolved in DMSO (for fluorometry) and prepared various concentration of the solution. To each concentration was added 2-fold volume of 0.2M Tris-HCl (pH8.6), thereby obtaining a test solution. Synthetic substrate (Funakoshi, L-1335) was dissolved in DMSO and 2-volume of 0.2M Tris-HCl (pH8.6) was added thereto, thereby obtaining a substrate solution. The reaction was performed using a microplate having 96 wells (Nunk). Six-time reactions were repeated for each concentration. One handred and forty µl of an enzyme solution containing 0.2M Tris-HCl (pH8.6), 30 µl of a test solution and 30 µl of a substrate solution per well of the microplate were respectively pre-incubated at 37°C for 10 minutes. After completion of the incubation, the enzyme solution was mixed with the test sample and incubated for 10 minutes and then the substrate solution was added to perform an enzyme reaction. The absorbance of released P-nitroanilide (PNA) was measured at the wave length of 405 nm by means of a microplate reader (MTP-100; CORONA), thereby determining the substrate decomposition. […]

The next experiment concerns the target T2, human cathepsin G (HCG) (Homo sapiens, UniProt P08311).
T2 construct: purchased Cosmo Bio Inc
T2 sequence (P08311 21-244): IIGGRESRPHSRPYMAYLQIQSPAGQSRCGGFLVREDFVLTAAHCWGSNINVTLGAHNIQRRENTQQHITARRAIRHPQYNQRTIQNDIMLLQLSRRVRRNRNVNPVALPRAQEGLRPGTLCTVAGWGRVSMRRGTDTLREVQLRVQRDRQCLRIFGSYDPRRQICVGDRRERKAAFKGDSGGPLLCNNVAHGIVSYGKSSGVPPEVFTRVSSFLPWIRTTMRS
Kind of experiment: HCG inhibitory activity (synthetic substrate, pNA release). The conditions noted are these: pH 7.5; HCG 50 nM, substrate 0.5 mM; read-out: IC₅₀ value HCG. On the procedure: as §1
(§2) A test compound was dissolved in DMSO (for fluorometry) and prepared various concentration of the solution. To each concentration was added 2-fold volume of 0.2M Tris-HCl (pH8.6), thereby obtaining a test solution. Synthetic substrate (Funakoshi, L-1335) was dissolved in DMSO and 2-volume of 0.2M Tris-HCl (pH8.6) was added thereto, thereby obtaining a substrate solution. The reaction was performed using a microplate having 96 wells (Nunk). Six-time reactions were repeated for each concentration. One handred and forty µl of an enzyme solution containing 0.2M Tris-HCl (pH8.6), 30 µl of a test solution and 30 µl of a substrate solution per well of the microplate were respectively pre-incubated at 37°C for 10 minutes. After completion of the incubation, the enzyme solution was mixed with the test sample and incubated for 10 minutes and then the substrate solution was added to perform an enzyme reaction. The absorbance of released P-nitroanilide (PNA) was measured at the wave length of 405 nm by means of a microplate reader (MTP-100; CORONA), thereby determining the substrate decomposition. The rate of the substrate decomposition was shown as an average value of 6 repeated reactions. The inhibitory concentration of a test compound relative to the amount of the substrate decomposition in the reaction mixture without a test compound was regarded as an IC₅₀ value. The final concentration of HLE and a synthesized substrate in the reaction mixture were 5.63 nM and 0.2625 mM, respectively.
a) Enzyme obtaining route HCG was obtained from Cosmo Bio Inc.
The same method as in the measurement of HLE inhibitory activity was used except that a buffer solution (pH 7.5) was used. The final concentration of HCG and synthetic substrate (Funakoshi, L-1010) in a reaction mixture were 50 nM and 0.5 mM, respectively.

In experiment [2] the target is T3, human leukocyte elastase (HLE) (Homo sapiens, UniProt P08246).
T3 construct: the mixed solution was subjected to density gradient centrifugation, thereby obtaining neutrophiles; from tissue; host or cells: neutrophils from human vein blood (buffy coat)
T3 sequence (P08246 30-247 limits assumed): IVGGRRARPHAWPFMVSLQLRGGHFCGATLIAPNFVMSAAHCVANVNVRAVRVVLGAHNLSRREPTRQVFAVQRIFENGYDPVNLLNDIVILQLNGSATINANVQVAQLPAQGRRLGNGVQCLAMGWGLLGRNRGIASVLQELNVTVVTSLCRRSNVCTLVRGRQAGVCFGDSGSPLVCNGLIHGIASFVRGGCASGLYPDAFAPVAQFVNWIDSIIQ
Kind of experiment: HLE inhibitory activity (synthetic substrate, pNA release, absorbance 405 nm). As to conditions: pH 8.6; HLE 5.63 nM, substrate 0.2625 mM; 37°C; read-out: IC₅₀ value HLE. The procedure: as §1
A buffy coat was obtained by subjecting human vein blood to centrifugation. To the buffy coat was added distilled water to make a hypotonic solution, thereby bursting erythrocytes. To the residual blood cell component was added a 33.4% of Conrey 400 solution/9% Ficoll solution (the ratio of the former solution to the latter solution is 10:24), and the mixed solution was subjected to density gradient centrifugation, thereby obtaining neutrophiles. The neutrophile fraction was washed with Hanks' buffer for three times and then cells were recovered and cryopreserved at -80°C until use. The cryopreserved-cells were thawed with warm water at 37°C and suspended in a 9-fold volume of lysis buffer containing 0.1M Tris-HCl (pH7.5), 1M MgCl₂ and 0.1% Brij 35. The suspended cells are destroyed by means of polotoron with ice-cooling. The cell suspension was subjected to centrifugation at 100,000 x g for 1 hour. After removing precipitates, 2-fold volume of a Tris-HCl buffer containing 5 mM Tris-HCl(pH 7.5), 1M NaCl and 1.1% Brij 35 was added to the supernatant, thereby obtaining a crude solution of an enzyme extract. The crude solution was subjected to aprotinine affinity column and extracted with an elution buffer containing […] of glycine-HCl (pH 3.3), 1M NaCl and 0.1% Brij 35, thereby obtaining an active fraction. The obtained active fraction was further subjected to MONO S-ion-exchange chromatography and eluted with 2M NaCl linear gradient. The obtained fraction was dialyzed against 25 mM Tris-HCl (pH8.6) and lyophilized, thereby obtained an enzyme sample.
as §2

Turning to `Cc1cccc2nc([C@@H](NC(=O)OCC(c3ccccc3)c3ccccc3)C(C)C)oc(=O)c12` [Compound 1, 2-[1(S)-[(2,2-diphenylethoxy-carbonyl)amino]-2-methylpropyl]-5-methyl-4H-3,1-benzoxazin-4-one], the IC50 in experiment [1] was > 12.5 µM; on human cathepsin G (HCG) it was > 12.5 µM; in experiment [2] it was 0.07 µM.
